Structures can show the parent of a compound that is named as a salt.
Target: T1, NLRP3 (Homo sapiens, UniProt Q96P20)
Assay: THP-1 cells pyroptosis assay (LPS + nigericin, resazurin readout)
Format: cell-based
Design: Seed THP-1 cells (25,000 cells/well) containing 1.0 μg/ml LPS in 40 μl of RPMI medium; host or cells: THP-1 cells, LPS-primed and nigericin-stimulated
Details: NLRP3 inhibitory activity in THP-1 cells, 1.0 μg/ml LPS, 5 μM nigericin
Source text: It is well established that the activation of NLRP3 leads to cell pyroptosis and this feature plays an important part in the manifestation of clinical disease (Yan-gang Liu et al., Cell Death & Disease, 2017, 8(2), e2579; Alexander Wree et al., Hepatology, 2014, 59(3), 898-910; Alex Baldwin et al., Journal of Medicinal Chemistry, 2016, 59(5), 1691-1710; Ema Ozaki et al., Journal of Inflammation Research, 2015, 8, 15-27; Zhen Xie & Gang Zhao, Neuroimmunology Neuroinflammation, 2014, 1(2), 60-65; Mattia Cocco et al., Journal of Medicinal Chemistry, 2014, 57(24), 10366-10382; T. Satoh et al., Cell Death & Disease, 2013, 4, e644). Therefore, it is anticipated that inhibitors of NLRP3 will block pyroptosis, as well as the release of pro-inflammatory cytokines (e.g. IL-1β) from the cell. THP-1 cells (ATCC # TIB-202) were grown in RPMI containing L-glutamine (Gibco #11835) supplemented with 1 mM sodium pyruvate (Sigma # S8636) and penicillin (100 units/ml)/streptomycin (0.1 mg/ml) (Sigma # P4333) in 10% Fetal Bovine Serum (FBS) (Sigma # F0804). The cells were routinely passaged and grown to confluency (˜10^6 cells/ml). On the day of the experiment, THP-1 cells were harvested and resuspended into RPMI medium (without FBS). The cells were then counted and viability (>90%) checked by Trypan blue (Sigma # T8154). Appropriate dilutions were made to give a concentration of 625,000 cells/ml. To this diluted cell solution was added LPS (Sigma # L4524) to give a […] Final Assay Concentration (FAC). 40 μl of the final preparation was aliquoted into each well of a 96-well plate. The plate thus prepared was used for compound screening. The following method step-by-step assay was followed for compound screening. • 1. Seed THP-1 cells (25,000 cells/well) containing 1.0 μg/ml LPS in 40 μl of RPMI medium (without FBS) in 96-well, black walled, clear bottom cell culture plates coated with poly-D-lysine (VWR #734-0317) • 2. Add 5 μl compound (8 points half-log dilution, with 10 μM top dose) or vehicle (DMSO 0.1% FAC) to the appropriate wells • 3. […] Add 5 μl nigericin (Sigma # N7143) (FAC 5 μM) to all wells • 5. […] At the end of the incubation period, spin plates at 300×g for 3 mins and remove supernatant • 7. Then add 50 μl of resazurin (Sigma # R7017) (FAC 100 μM resazurin in RPMI medium without FBS) and incubate plates for a further 1-2 hrs at 37° C. and 5% CO2 • 8. Plates were read in an Envision reader at Ex 560 nm and Em 590 nm • 9. IC50 data is fitted to a non-linear regression equation (log inhibitor vs response-variable slope 4-parameters) The results of the pyroptosis assay performed are summarised in Table 1 below as THP IC50.

T1 sequence (Q96P20 whole entry): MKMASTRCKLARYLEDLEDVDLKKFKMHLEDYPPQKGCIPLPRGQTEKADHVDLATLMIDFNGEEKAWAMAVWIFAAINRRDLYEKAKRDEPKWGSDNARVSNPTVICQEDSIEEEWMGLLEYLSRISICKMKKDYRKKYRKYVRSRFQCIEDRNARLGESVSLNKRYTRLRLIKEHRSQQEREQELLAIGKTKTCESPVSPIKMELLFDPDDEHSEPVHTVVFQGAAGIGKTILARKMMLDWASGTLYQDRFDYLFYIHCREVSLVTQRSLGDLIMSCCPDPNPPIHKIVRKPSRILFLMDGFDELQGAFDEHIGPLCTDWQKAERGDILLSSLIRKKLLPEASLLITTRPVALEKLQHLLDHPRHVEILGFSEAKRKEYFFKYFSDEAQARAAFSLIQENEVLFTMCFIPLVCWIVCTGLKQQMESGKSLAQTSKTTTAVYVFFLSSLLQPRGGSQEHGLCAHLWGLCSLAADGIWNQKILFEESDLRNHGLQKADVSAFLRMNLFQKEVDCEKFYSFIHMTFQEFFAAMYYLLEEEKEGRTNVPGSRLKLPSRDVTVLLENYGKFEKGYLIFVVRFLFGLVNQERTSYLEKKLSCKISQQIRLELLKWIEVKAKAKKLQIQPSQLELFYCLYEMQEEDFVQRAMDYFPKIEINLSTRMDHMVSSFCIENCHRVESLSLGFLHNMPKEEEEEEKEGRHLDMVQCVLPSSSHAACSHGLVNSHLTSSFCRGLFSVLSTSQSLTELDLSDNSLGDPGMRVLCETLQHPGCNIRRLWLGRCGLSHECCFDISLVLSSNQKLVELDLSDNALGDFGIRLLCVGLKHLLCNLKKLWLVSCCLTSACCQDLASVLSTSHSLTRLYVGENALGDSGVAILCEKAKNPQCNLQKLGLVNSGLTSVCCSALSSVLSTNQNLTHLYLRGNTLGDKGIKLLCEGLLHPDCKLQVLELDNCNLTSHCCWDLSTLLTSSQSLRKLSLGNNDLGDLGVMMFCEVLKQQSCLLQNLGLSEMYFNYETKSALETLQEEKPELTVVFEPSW

Compound | IC50 [nM]
CN(C)C1CCN(CCCS(=O)(=O)NC(=O)Nc2c3c(cc4c2CCC4)CCC3)CC1 [Example 2, 3-(4-(Dimethylamino)piperidin-1-yl)-N-((1,2,3,5,6,7-hexahydro-s-indacen-4-yl)carbamoyl)propane-1-sulfonamide, potassium salt] | 2000 to 10000
CC(=O)NCCS(=O)(=O)NC(=O)Nc1c2c(cc3c1CCC3)CCC2 [Example 6, N-(2-(N-((1,2,3,5,6,7-Hexahydro-s-indacen-4-yl)carbamoyl)sulfamoyl)ethyl)acetamide, Potassium Salt] | 2000 to 10000
O=C(Nc1c2c(cc3c1CCC3)CCC2)NS(=O)(=O)CCCCN1CCOCC1 [Example 9, N-((1,2,3,5,6,7-Hexahydro-s-indacen-4-yl)carbamoyl)-4-morpholinobutane-1-sulfonamide, Potassium Salt] | 2000 to 10000
O=C(Nc1c2c(cc3c1CCC3)CCC2)NS(=O)(=O)CCCN1CCOCC1 [Example 15, N-((1,2,3,5,6,7-Hexahydro-s-indacen-4-yl)carbamoyl)-3-morpholinopropane-1-sulfonamide, Potassium Salt] | 1600 to 2000
O=C(Nc1c2c(cc3c1CCC3)CCC2)NS(=O)(=O)CCCN1CCCCC1 [Example 16, N-((1,2,3,5,6,7-Hexahydro-s-indacen-4-yl)carbamoyl)-3-(piperidin-1-yl)propane-1-sulfonamide, Potassium Salt] | 1600 to 2000
CCN(CC)CCS(=O)(=O)NC(=O)Nc1c2c(cc3c1CCC3)CCC2 [Example 18, 2-(Diethylamino)-N-((1,2,3,5,6,7-hexahydro-s-indacen-4-yl)carbamoyl)ethane-1-sulfonamide, potassium salt] | 2000 to 10000
CN1CCC(CS(=O)(=O)NC(=O)Nc2c3c(cc4c2CCC4)CCC3)CC1 [Example 22, N-((1,2,3,5,6,7-Hexahydro-s-indacen-4-yl)carbamoyl)-1-(1-methylpiperidin-4-yl)methanesulfonamide, Potassium Salt] | 2000 to 10000
CC(C)N1CCC(CS(=O)(=O)NC(=O)Nc2c3c(cc4c2CCC4)CCC3)C1 (stereo not drawn) [Example 25, N-((1,2,3,5,6,7-Hexahydro-s-indacen-4-yl)carbamoyl)-1-(1-isopropylpyrrolidin-3-yl)methanesulfonamide, Potassium Salt] | 2000 to 10000

Target: T1, NLRP3
Assay: Human whole blood IL1β release assay (LPS + nigericin, AlphaLisa IL-1β)
Format: cell-based
Design: Plate out 80 μl of whole blood containing 1βg/ml of LPS in 96-well, clear bottom cell culture plate; from tissue; host or cells: human whole blood from healthy donors, LPS-primed and nigericin-stimulated
Details: NLRP3 inhibitory activity in human whole blood, IL-1β release, 10 μM nigericin, read-out: HWB IC50
Description: For systemic delivery, the ability to inhibit NLRP3 when the compounds are present within the bloodstream is of great importance. For this reason, the NLRP3 inhibitory activity of a number of compounds in human whole blood was investigated in accordance with the following protocol.
Human whole blood in Li-heparin tubes was obtained from healthy donors from a volunteer donor panel. • 1. Plate out 80 μl of whole blood containing 1βg/ml of LPS in 96-well, clear bottom cell culture plate (Corning #3585) • 2. Add 10 μl compound (8 points half-log dilution with 10 μM top dose) or vehicle (DMSO 0.1% FAC) to the appropriate wells • 3. Incubate for 3 hrs at 37° C., 5% CO2 • 4. Add 10 μl Nigericin (Sigma # N7143) (10 μM FAC) to all wells • 5. Incubate for 1 hr at 37° C., 5% CO2 • 6. At the end of the incubation period, spin plates at 300×g for 5 mins to pellet cells and remove 20 μl of supernatant and add to 96-well v-bottom plates for IL-1β analysis (note: these plates containing the supernatants can be stored at −80° C. to be analysed at a later date) • 7. IL-1β was measured according to the manufacturer protocol (Perkin Elmer-AlphaLisa IL-1 Kit AL220F-5000) • 8. IC50 data is fitted to a non-linear regression equation (log inhibitor vs response-variable slope 4-parameters)

Compound | IC50 [nM]
CC1CCN1CCS(=O)(=O)NC(=O)Nc1c2c(cc3c1CCC3)CCC2 (stereo not drawn) [Example 89, N-((1,2,3,5,6,7-Hexahydro-s-indacen-4-yl)carbamoyl)-2-(2-methylazetidin-1-yl)ethane-1-sulfonamide] | ≤ 1000
O=C(Nc1c2c(cc3c1CCC3)CCC2)NS(=O)(=O)CCN1CC(F)C1 [Example 90, 2-(3-Fluoroazetidin-1-yl)-N-((1,2,3,5,6,7-hexahydro-s-indacen-4-yl)carbamoyl)ethane-1-sulfonamide] | ≤ 5000
CC(CS(=O)(=O)NC(=O)Nc1c2c(cc3c1CCC3)CCC2)N1CCC1 (stereo not drawn) [Example 91, 2-(Azetidin-1-yl)-N-((1,2,3,5,6,7-hexahydro-s-indacen-4-yl)carbamoyl)propane-1-sulfonamide] | ≤ 1000
COC(=O)CCS(=O)(=O)NC(=O)Nc1c2c(cc3c1CCC3)CCC2 [Example 92, Methyl 3-(N-((1,2,3,5,6,7-hexahydro-s-indacen-4-yl)carbamoyl)sulfamoyl)propanoate] | ≤ 7500
CC(C)N1CCCC(CS(=O)(=O)NC(=O)Nc2c3c(cc4c2CCC4)CCC3)C1 (stereo not drawn) [Example 93, N-((1,2,3,5,6,7-Hexahydro-s-indacen-4-yl)carbamoyl)-1-(1-isopropylpiperidin-3-yl)methanesulfonamide] | ≤ 1000
CC(C)C(=O)N(C)CCCS(=O)(=O)NC(=O)Nc1c2c(cc3c1CCC3)CCC2 [Example 95, N-(3-(N-((1,2,3,5,6,7-Hexahydro-s-indacen-4-yl)carbamoyl)sulfamoyl)propyl)-N-methylisobutyramide] | ≤ 5000
CN(C)C(=O)CCS(=O)(=O)NC(=O)Nc1c2c(cc3c1CCC3)CCC2 [Example 97, 3-(N-((1,2,3,5,6,7-Hexahydro-s-indacen-4-yl)carbamoyl)sulfamoyl)-N,N-dimethylpropanamide] | ≤ 7500
CC1(C)CCN1CCS(=O)(=O)NC(=O)Nc1c2c(cc3c1CCC3)CCC2 [Example 102, 2-(2,2-Dimethylazetidin-1-yl)-N-((1,2,3,5,6,7-hexahydro-s-indacen-4-yl)carbamoyl)ethane-1-sulfonamide] | ≤ 1000
CC1CC(C)N1CCS(=O)(=O)NC(=O)Nc1c2c(cc3c1CCC3)CCC2 (stereo not drawn) [Example 103, 2-(2,4-Dimethylazetidin-1-yl)-N-((1,2,3,5,6,7-hexahydro-s-indacen-4-yl)carbamoyl)ethane-1-sulfonamide] | ≤ 1000
CC(C)C1CCN1CCS(=O)(=O)NC(=O)Nc1c2c(cc3c1CCC3)CCC2 (stereo not drawn) [Example 104, N-((1,2,3,5,6,7-Hexahydro-s-indacen-4-yl)carbamoyl)-2-(2-isopropylazetidin-1-yl)ethane-1-sulfonamide] | ≤ 1000
CN1CCCC1CS(=O)(=O)NC(=O)Nc1c2c(cc3c1CCC3)CCC2 (stereo not drawn) [Example 105, N-((1,2,3,5,6,7-Hexahydro-s-indacen-4-yl)carbamoyl)-1-(1-methylpyrrolidin-2-yl)methanesulfonamide] | ≤ 1000
CCN1CCCC1CS(=O)(=O)NC(=O)Nc1c2c(cc3c1CCC3)CCC2 (stereo not drawn) [Example 106, 1-(1-Ethylpyrrolidin-2-yl)-N-((1,2,3,5,6,7-hexahydro-s-indacen-4-yl)carbamoyl)methanesulfonamide] | ≤ 1000
CC(C)N1CCCC1CS(=O)(=O)NC(=O)Nc1c2c(cc3c1CCC3)CCC2 (stereo not drawn) [Example 107, N-((1,2,3,5,6,7-Hexahydro-s-indacen-4-yl)carbamoyl)-1-(1-isopropylpyrrolidin-2-yl)methanesulfonamide] | ≤ 1000
CC(C)N1CCCCC1CS(=O)(=O)NC(=O)Nc1c2c(cc3c1CCC3)CCC2 (stereo not drawn) [Example 109, N-((1,2,3,5,6,7-Hexahydro-s-indacen-4-yl)carbamoyl)-1-(1-isopropylpiperidin-2-yl)methanesulfonamide] | ≤ 1000
CCN1CCCCC1CS(=O)(=O)NC(=O)Nc1c2c(cc3c1CCC3)CCC2 (stereo not drawn) [Example 110, 1-(1-Ethylpiperidin-2-yl)-N-((1,2,3,5,6,7-hexahydro-s-indacen-4-yl)carbamoyl)methanesulfonamide] | ≤ 1000
CC(C)n1ccc(CS(=O)(=O)NC(=O)Nc2c3c(cc4c2CCC4)CCC3)n1 [Example 111, N-((1,2,3,5,6,7-Hexahydro-s-indacen-4-yl)carbamoyl)-1-(1-isopropyl-1H-pyrazol-3-yl)methanesulfonamide] | ≤ 7500

Source: US20200331850A1, “NOVEL SULFONAMIDE CARBOXAMIDE COMPOUNDS” (Inflazome Limited, priority 2017, published 2020)
